According to PMC5814560, “6-Thioguanine is a noncompetitive and slow binding inhibitor of human deubiquitinating protease USP2” (Scientific Reports, 2018):

Key:
[1] = molecular target: T1, USP2 (ubiquitin-specific protease 2) (Homo sapiens, UniProt O75604); experiment: Ub-AFC deubiquitination kinetics, noncompetitive fit; very weak, called ineffective by the authors; assay type: biochemical; design: catalytic domain, residues 258–605; conditions: read-out: Kis
Target sequence in this assay (O75604 258-605): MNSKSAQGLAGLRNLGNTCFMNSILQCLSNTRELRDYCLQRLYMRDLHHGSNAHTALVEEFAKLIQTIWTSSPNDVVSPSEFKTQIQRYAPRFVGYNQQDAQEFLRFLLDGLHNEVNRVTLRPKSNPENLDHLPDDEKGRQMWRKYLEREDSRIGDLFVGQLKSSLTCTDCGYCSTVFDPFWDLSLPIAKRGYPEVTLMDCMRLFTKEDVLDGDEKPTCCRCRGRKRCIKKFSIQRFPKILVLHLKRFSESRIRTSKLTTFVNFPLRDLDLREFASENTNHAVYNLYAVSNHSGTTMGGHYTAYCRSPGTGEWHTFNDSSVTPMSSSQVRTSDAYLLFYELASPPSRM

[2] = molecular target: T1, USP2 (ubiquitin-specific protease 2); experiment: X-ray crystal structure (soak, […] Å, about […] occupancy); Ub-AFC deubiquitination kinetics (Kis […], IC50 […]); assay type: biochemical; design: catalytic domain, residues 258–605; with ubiquitin (Ub) in the crystal
Target sequence in this assay (O75604 258-605, other chains not shown): as the sequence (O75604 258-605) above

Sc1ncnc2nc[nH]c12 [6MP, 6-mercaptopurine]
Ki [1]: 349 ± 23.7 µM

Nc1nc2nc[nH]c2c(=S)[nH]1 [6TG, 6-thioguanine]
Ki [2]: 24.6 ± 1.8 µM
